For this assay, the target named is ROCK2 (human) (UniProt O75116). Kind of assay: Inhibition of ROCK2 Kinase Activity.
Sequence of ROCK2 (human) (O75116 whole entry, looked up): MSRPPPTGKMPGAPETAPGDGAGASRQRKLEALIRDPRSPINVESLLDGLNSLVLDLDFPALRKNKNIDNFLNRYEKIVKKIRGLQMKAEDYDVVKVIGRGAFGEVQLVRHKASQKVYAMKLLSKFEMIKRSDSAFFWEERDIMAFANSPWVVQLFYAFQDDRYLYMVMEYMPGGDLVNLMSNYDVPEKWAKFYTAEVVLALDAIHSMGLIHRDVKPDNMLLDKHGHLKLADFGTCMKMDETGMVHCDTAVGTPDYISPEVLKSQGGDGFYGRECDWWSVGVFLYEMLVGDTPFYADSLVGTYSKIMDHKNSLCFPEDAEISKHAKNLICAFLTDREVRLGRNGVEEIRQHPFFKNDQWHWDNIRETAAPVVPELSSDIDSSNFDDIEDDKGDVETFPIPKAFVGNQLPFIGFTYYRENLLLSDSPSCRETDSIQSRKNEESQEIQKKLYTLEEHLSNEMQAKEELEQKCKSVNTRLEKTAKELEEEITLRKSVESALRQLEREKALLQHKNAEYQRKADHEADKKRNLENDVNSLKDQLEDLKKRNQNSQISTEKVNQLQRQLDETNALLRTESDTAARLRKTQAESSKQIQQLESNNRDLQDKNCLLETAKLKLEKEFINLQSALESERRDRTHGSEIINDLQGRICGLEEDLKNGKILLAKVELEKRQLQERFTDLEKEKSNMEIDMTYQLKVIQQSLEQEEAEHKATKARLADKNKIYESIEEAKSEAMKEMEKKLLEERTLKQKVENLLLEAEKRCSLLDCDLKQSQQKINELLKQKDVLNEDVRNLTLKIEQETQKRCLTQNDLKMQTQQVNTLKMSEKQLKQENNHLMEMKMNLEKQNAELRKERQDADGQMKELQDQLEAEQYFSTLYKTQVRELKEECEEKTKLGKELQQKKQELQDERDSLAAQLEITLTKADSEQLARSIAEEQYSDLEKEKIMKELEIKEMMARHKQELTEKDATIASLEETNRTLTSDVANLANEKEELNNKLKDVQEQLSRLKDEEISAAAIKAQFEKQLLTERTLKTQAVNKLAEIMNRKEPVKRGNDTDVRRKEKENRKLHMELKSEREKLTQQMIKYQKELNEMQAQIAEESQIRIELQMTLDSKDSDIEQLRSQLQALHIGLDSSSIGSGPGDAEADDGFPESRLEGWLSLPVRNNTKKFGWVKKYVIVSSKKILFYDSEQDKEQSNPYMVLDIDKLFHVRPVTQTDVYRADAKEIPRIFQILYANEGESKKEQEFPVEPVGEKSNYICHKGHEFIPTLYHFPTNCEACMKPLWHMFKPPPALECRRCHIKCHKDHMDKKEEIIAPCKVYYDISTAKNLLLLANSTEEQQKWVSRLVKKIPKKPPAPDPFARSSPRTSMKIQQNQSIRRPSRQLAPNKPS
`COc1ccccc1C=CC(=O)NCc1nc(-c2ccncc2)n[nH]1` had an IC50 greater than 5 µM.

`Cc1ccccc1C(=O)NCc1nc(-c2ccncc2)n[nH]1` returned a half-maximal inhibitory concentration (IC50) greater than 5 µM.

As for `CCCc1ccc(C(=O)NCc2nc(-c3ccncc3)n[nH]2)cc1`, the half-inhibitory concentration (IC50) was greater than 5 µM.

Regarding `COc1cc(C=CC(=O)NCc2nc(-c3ccncc3)n[nH]2)ccc1O`, the concentration for half-maximal inhibition (IC50) was greater than 5 µM.

Consider `O=C(c1cccs1)N1CCn2nc(-c3ccncc3)nc2C1`, for which the IC50 is greater than 5 µM.

`O=C(NCc1nc(-c2ccncc2)n[nH]1)c1cnc[nH]1` gave a concentration for half-maximal inhibition (IC50) greater than 5 µM.

On to `O=C(NCc1nc(-c2ccncc2)n[nH]1)c1cccc2cc[nH]c12`, for which the IC50 was no more than 5 µM.

For the compound `O=C(NCc1nc(-c2c[nH]c3ncccc23)n[nH]1)C(Cl)(Cl)Cl`, the IC50 was greater than 5 µM.

Turning to `CC(C)(C)OC(=O)N1Cc2ccccc2CC1C(=O)NCc1nc(-c2c[nH]c3ncccc23)n[nH]1` (stereo not drawn), the IC50 was greater than 5 µM.

`CC(C)Oc1ccc(C(=O)NCc2nc(-c3c[nH]c4ncccc34)n[nH]2)cc1` displayed an IC50 greater than 5 µM.

Turning to `O=C(Cc1ccc(O)c(Cl)c1)NCc1nc(-c2ccncc2)n[nH]1`, the concentration for half-maximal inhibition (IC50) was greater than 5 µM.

`O=C(NCc1nc(-c2ccncc2)n[nH]1)c1ccc(CO)cc1` returned an IC50 of no more than 5 µM.

Turning to `O=C(NCc1nc(-c2ccncc2)n[nH]1)c1ccc(-c2ccc(O)cc2)cc1`, the IC50 was greater than 5 µM.

`CC(C)(C)OC(=O)N1CC(O)CC1C(=O)NCc1nc(-c2ccncc2)n[nH]1` (stereo not drawn) displayed a half-maximal inhibitory concentration (IC50) greater than 5 µM.

In turn, `Cc1ccsc1C(=O)NCc1nc(-c2ccncc2)n[nH]1` gave an IC50 of no more than 5 µM.

For the compound `CCCc1ccc(C(=O)NCc2nc(-c3c[nH]c4ncccc34)n[nH]2)cc1`, the IC50 is greater than 5 µM.

`COc1ccc([N+](=O)[O-])c(C(=O)NCc2nc(-c3ccncc3)n[nH]2)c1`: the half-maximal inhibitory concentration (IC50) is greater than 5 µM.

`O=S(=O)(NCc1nc(-c2ccncc2)n[nH]1)c1ccc(O)cc1`: the IC50 was greater than 5 µM.

`O=C(NCc1nc(-c2c[nH]c3ncccc23)n[nH]1)c1ccc(F)cc1`: the IC50 is greater than 5 µM.

On to `O=C(NCc1nc(-c2ccncc2)n[nH]1)c1cc([N+](=O)[O-])ccc1F`, for which the IC50 is greater than 5 µM.

In the case of `O=C(C=Cc1cccc(O)c1)NCc1nc(-c2c[nH]c3ncccc23)n[nH]1`, the IC50 is greater than 5 µM.

As to `CS(=O)(=O)Nc1cccc(C(=O)NCc2nc(-c3c[nH]c4ncccc34)cs2)c1`, the half-maximal inhibitory concentration (IC50) was no more than 5 µM.

For `COc1ccc(O)c(C(=O)NCc2nc(-c3ccncc3)n[nH]2)c1`, the IC50 is no more than 5 µM.

`O=C(Cc1ccc2c(c1)OCO2)NCc1nc(-c2c[nH]c3ncccc23)n[nH]1` displayed a 50% inhibitory concentration (IC50) greater than 5 µM.

Consider `O=C(Cc1ccccc1)NCc1nc(-c2c[nH]c3ncccc23)n[nH]1`, for which the concentration for half-maximal inhibition (IC50) is greater than 5 µM.

Consider `O=C(NCc1nc(-c2ccncc2)n[nH]1)c1ccc2c(c1)OCO2`, for which the IC50 is greater than 5 µM.

In turn, `O=C(Cc1ccc(O)c(Cl)c1)NCc1nc(-c2c[nH]c3ncccc23)n[nH]1` gave a 50% inhibitory concentration (IC50) greater than 5 µM.

The compound `O=C(NCc1nc(-c2c[nH]c3ncccc23)n[nH]1)c1cccc(Br)c1` yielded an IC50 greater than 5 µM.

In turn, `Cc1cc(C)cc(C(=O)NCc2nc(-c3ccncc3)n[nH]2)c1` showed a concentration for half-maximal inhibition (IC50) greater than 5 µM.

As for `CC(C)(C)OC(=O)NC(Cc1ccccc1)C(=O)NCc1nc(-c2ccncc2)n[nH]1` (stereo not drawn), the 50% inhibitory concentration (IC50) is greater than 5 µM.

Turning to `O=C(NCc1nc(-c2c[nH]c3ncccc23)n[nH]1)c1ccc(I)cc1`, the concentration for half-maximal inhibition (IC50) is greater than 5 µM.

Compound `Cc1ccccc1CC(=O)NCc1nc(-c2c[nH]c3ncccc23)n[nH]1` yielded a 50% inhibitory concentration (IC50) greater than 5 µM.

For `O=C(NCc1nc(-c2c[nH]c3ncccc23)n[nH]1)c1ccc(F)c([N+](=O)[O-])c1`, the IC50 was greater than 5 µM.

As to `O=C(NCc1nc(-c2c[nH]c3ncccc23)n[nH]1)C1CCCCC1`, the IC50 is greater than 5 µM.

Turning to `O=C(NCc1nc(-c2ccncc2)co1)c1ccc(O)cc1O`, the IC50 was no more than 5 µM.

In turn, `O=C(CCc1ccccc1Br)NCc1nc(-c2c[nH]c3ncccc23)n[nH]1` gave a half-maximal inhibitory concentration (IC50) greater than 5 µM.

For the compound `COc1cccc(C(=O)NCc2nc(-c3c[nH]c4ncccc34)cs2)c1`, the IC50 was no more than 5 µM.

On to `COc1cc(Cl)ccc1C(=O)NCc1nc(-c2ccncc2)n[nH]1`, for which the IC50 is greater than 5 µM.

`CC(=O)Oc1ccccc1C(=O)NCc1nc(-c2ccncc2)n[nH]1` gave a concentration for half-maximal inhibition (IC50) of no more than 5 µM.

Compound `CCCCCc1ccc(C(=O)NCc2nc(-c3ccncc3)n[nH]2)cc1` gave an IC50 greater than 5 µM.

Compound `O=C(NCc1nc(-c2ccncc2)n[nH]1)C(Cl)(Cl)Cl` had an IC50 greater than 5 µM.

Take `O=C(NCc1nc(-c2c[nH]c3ncccc23)n[nH]1)c1ccc(Oc2ccccc2)cc1`: the IC50 was greater than 5 µM.

Take `COc1ccc(C=CC(=O)NCc2nc(-c3ccncc3)n[nH]2)cc1O`: the 50% inhibitory concentration (IC50) is greater than 5 µM.

Compound `O=C(NCc1nc(-c2c[nH]c3ncccc23)n[nH]1)c1ccc(F)c(F)c1` displayed an IC50 greater than 5 µM.

For `CC(C)C(NC(=O)OC(C)(C)C)C(=O)NCc1nc(-c2ccncc2)n[nH]1` (stereo not drawn), the half-maximal inhibitory concentration (IC50) is greater than 5 µM.

Compound `O=C(NCc1nc(-c2ccncc2)n[nH]1)c1cnc(O)c(Cl)c1` showed an IC50 greater than 5 µM.

`O=C(NCc1nc(-c2c[nH]c3ncccc23)n[nH]1)C1=C(O)CC=CC([N+](=O)[O-])=C1` displayed a half-maximal inhibitory concentration (IC50) greater than 5 µM.

In the case of `CC(C)(C)OC(=O)N1CCNC(C(=O)NCc2nc(-c3ccncc3)n[nH]2)C1` (stereo not drawn), the IC50 was greater than 5 µM.

With `COc1ccc(C(=O)NCc2nc(-c3c[nH]c4ncccc34)n[nH]2)c(OC)c1`, the half-maximal inhibitory concentration (IC50) is greater than 5 µM.

`COc1ccccc1CCC(=O)NCc1nc(-c2ccncc2)n[nH]1` came in with a half-inhibitory concentration (IC50) greater than 5 µM.

`O=C(NCc1nc(-c2ccncc2)n[nH]1)C1=CCCC1` returned an IC50 greater than 5 µM.

The compound `CCOc1ccc2ccccc2c1C(=O)NCc1nc(-c2ccncc2)n[nH]1` displayed a concentration for half-maximal inhibition (IC50) greater than 5 µM.

Consider `Cc1cccc(C(=O)NCc2cc(-c3ccncc3)n[nH]2)c1O`, for which the IC50 was no more than 5 µM.

`O=C(NCc1nc(-c2ccncc2)n[nH]1)c1cc(Cl)ccn1` returned a half-maximal inhibitory concentration (IC50) greater than 5 µM.

Consider `N#Cc1ccc(C(=O)NCc2nc(-c3ccncc3)n[nH]2)cc1`, for which the IC50 is greater than 5 µM.

Consider `CCC(=O)C(=O)NCc1nc(-c2ccncc2)n[nH]1`, for which the concentration for half-maximal inhibition (IC50) was greater than 5 µM.

Regarding `COc1ccc(OC)c(C(=O)NCc2nc(-c3c[nH]c4ncccc34)n[nH]2)c1`, the IC50 is greater than 5 µM.

Compound `O=C(CC1Cc2ccccc2C1)NCc1nc(-c2ccncc2)n[nH]1` had an IC50 greater than 5 µM.

`COc1cc(C(=O)NCc2nc(-c3c[nH]c4ncccc34)n[nH]2)c([N+](=O)[O-])cc1OC` displayed an IC50 greater than 5 µM.

Compound `O=C(NCc1nc(-c2ccncc2)n[nH]1)c1ccc(Br)cc1` had an IC50 greater than 5 µM.

As to `O=C(NCc1nc(-c2c[nH]c3ncccc23)n[nH]1)C(F)(F)F`, the half-inhibitory concentration (IC50) is greater than 5 µM.

Take `O=C(NCc1nc(-c2ccncc2)n[nH]1)c1ccc(Oc2ccccc2)cc1`: the IC50 was no more than 5 µM.

For the compound `O=C(NCc1nc(-c2ccncc2)n[nH]1)c1cc(Cl)ccc1[N+](=O)[O-]`, the IC50 is greater than 5 µM.

Regarding `O=C(NCc1nc(-c2c[nH]c3ncccc23)n[nH]1)c1cc(O)ccc1O`, the half-inhibitory concentration (IC50) was greater than 5 µM.

In turn, `CC(C(=O)NCc1nc(-c2ccncc2)n[nH]1)c1cccc(C(=O)c2ccccc2)c1` (stereo not drawn) came in with an IC50 greater than 5 µM.

The compound `O=C(NCc1nc(-c2c[nH]c3ncccc23)n[nH]1)c1ccccc1C(F)(F)F` came in with a half-maximal inhibitory concentration (IC50) greater than 5 µM.

For `O=C(NCc1nc(-c2c[nH]c3ncccc23)n[nH]1)c1cc(F)c(Cl)cc1F`, the half-maximal inhibitory concentration (IC50) is greater than 5 µM.

For the compound `O=C(NCc1nc(-c2ccncc2)n[nH]1)c1n[nH]c2ccccc12`, the IC50 was no more than 5 µM.

The record behind these values is the Kinase Knowledgebase extract (Sharma et al. 2016).
